PMC13371181, “A paracrine-to-autocrine shunt of GREM1 fuels colorectal cancer metastasis via ACVR1C” (Molecular Cancer, 2026)
Entries after “also recorded” stand apart in the source; their conditions may differ.

Tests used:
Format in all cases: cell-based, human
[1] = test system: HCT116 and SW480 cells; assay: EMT markers by immunoblotting and RT–qPCR; conditions: GREM1-CM + GREM1 BAb, + SB505124 (1 µM) or + different concentrations of sb4 (sb4: immunoblotting)
Procedure: (§1) To investigate the effect of secreted GREM1 on CRC cells, an in vitro GREM1 secretion system was established using HEK293 cells. Stably GREM1-expressing cells (pcDNA3.1-GREM1) and empty-vector transfected cells (pcDNA3.1) were cultured in DMEM/F12 medium with 10% FBS until 40% confluence. After complete removal of the normal culture medium, HEK293-GREM1 and HEK293-Vec cells were continuously cultured in DMEM/F12 medium without FBS for 5 days before medium collection. GREM1 or Vector conditioned medium (GREM1-CM/Vec-CM) was then centrifuged at 1000 rpm for 30 min and the supernatant was collected for further study.
(§2) Protein was extracted from the cells with RIPA buffer (Beyotime, P0018) or NP40 lysis buffer (Beyotime, P0013F) and separated by SDS-PAGE, and transferred to polyvinylidene difluoride membranes. […] Band intensity was quantified using Fiji (ImageJ) by grayscale analysis.
Total RNA was extracted using Trizol reagent (Invitrogen, 15596026). […] The SYBR Green Premix Pro Taq HS qPCR Kit (Accurate Biology, AG11701) was then used to quantify mRNA expression according to the manufacturer’s instructions. All results were calculated using the 2^−ΔΔCt method. […]

[2] = test system: GREM1 promoter; assay: ChIP–qPCR, SMAD2/3/4 binding to GREM1 promoter; conditions: SW480 cells, SB505124 10 µM, 24 h, n = 3 independent experiments
Procedure: SW480 cells were starved in DMEM with 1% FCS overnight before treatment with vehicle, 10 µM SB505124 for 24 h. Cells were fixed in 1% paraformaldehyde for 10 min at RT for DNA-protein cross-linking, followed by quenching with glycine. Cross-linking chromatin was prepared using the SimpleChIP® Enzymatic Chromatin IP Kit (CST, 9002) according to the manufacturer’s instructions. For immunoprecipitation, 10 µg chromatin was incubated with 10 µL anti-histone H3 rabbit IgG (CST, 14269, positive control), 2 µL normal Rabbit IgG (CST, 2729) or 5 µL anti-SMAD2/3 rabbit IgG (CST, 8685) at 4 °C overnight. 2% chromatin prior to immunoprecipitation was used as input. Chromatin-protein-antibody complex was captured by protein G magnetic beads, and chromatin was released by reversal of cross-links and purified using the SimpleChIP® Enzymatic Chromatin IP Kit (CST, 9002) according to the manufacturer’s instructions. DNA was quantified by qPCR with primers targeting predicted SMAD2/3/4 binding regions on GREM1 or SNAI1 promoters. DNA levels were normalized to the input, and the fold-change of enrichment was calculated over the control. ChIP–qPCR primers are listed in Supplementary Table 2.

[3] = test system: HCT116 and SW480 cells; assay: Transwell invasion assay; conditions: HCT116 and SW480, Matrigel transwell, 48 h; n = 3 independent experiments
Procedure: as §1
Cells (1 × 10^5) were seeded in serum-free medium in the Matrigel-coated (Corning, 354480) transwell chambers (24-well insert, 8-µm pore size; BD Biosciences) for invasion experiments. The lower chamber was filled with RPMI1640 or DMEM containing 20% FBS. The migration of HCT116 and SW480 cells was measured in three random visual fields and quantified by microscopy after 48 h of incubation, followed by staining with DAPI or crystal violet. The invasive capacity of the cells was assessed using ImageJ software for quantification.

[4] = test system: ACVR1C–SMAD2/3 pathway in HCT116 and SW480 cells; assay: Immunoblotting p-SMAD2/3 (ACVR1C pathway); conditions: HCT116 and SW480 cells, immunoblotting; GREM1-CM + GREM1 BAb or + SB505124 (1 µM)
Procedure: as §1, §2

- SMAD2/3/4 binding to GREM1 promoter −733 and −612 sites [2]: significantly reduced this binding
Structure (SMILES): Cc1cccc(-c2[nH]c(C(C)(C)C)nc2-c2ccc3c(c2)OCO3)n1 [SB505124]
- GREM1-CM-induced EMT, effect of treatment [1]: significantly blocked GREM1-CM–induced p-SMAD2/3 activation and EMT
- GREM1-CM-induced invasion, effect of inhibitor [3]: abolished; also recorded: significantly reduced
- GREM1-CM-induced p-SMAD2/3, effect of inhibitor [4]: significantly blocked GREM1-CM–induced p-SMAD2/3 activation and EMT
